Assay results taken from patent EP2990415B1, “Cyclic beta defensins analogs for the treatment of infections” (Ceinge Biotecnologie Avanzate S.C. a R.L., priority 2014, dated 2016).
Bridge positions count the residues as written; N and C are the ends. Ends that are not written are not given here. Peptide text beside a SMILES is read from it.

Experiments:
[1] = test system: Enterococcus faecalis ATCC 29212; assay type: cell-based; conditions: 12.5 µM
Procedure: (§1) A CFU assay of the antibacterial activity of the peptides of the present invention against Pseudomonas aeruginosa ATCC (American Type Culture Collection, Manassas, VA, USA) 27853, Enterococcus faecalis ATCC 29212 and Escherichia coli ATCC 25922 was performed as follows. The strains were grown in aerobic conditions in tryptic soy broth (Difco Laboratories, Detroit, MI, USA) at 37°C and incubated in the presence of hBDs for 2 h at 37°C. We used two concentrations of peptides, i.e., 2.5 µM and 12.5 µM. For salt-dependence assay, 0, 50, 100 and 200 mM NaCl were included in the incubation buffer as previously described (1). Each assay was performed in triplicate. Bactericidal activity (mean and SD of three assays) is expressed as the ratio between colonies counted and the number of colonies on a control plate. The minimal inhibitory concentration (MIC) of the peptide SEQ ID No. 25 was determined with a modified version of the microbroth dilution assay of the National Committee for Clinical Laboratory Standards using a final inoculum of 10^5 CFU/ml. The following peptide concentrations were used: 100.0, 50.0, 25.0, 12.5, 6.25, 3.12 and 1.56 µM.

[2] = test system: Escherichia coli ATCC 25922; assay type: cell-based; conditions: 12.5 µM
Procedure: as §1

[3] = test system: Pseudomonas aeruginosa ATCC 27853; assay type: cell-based; conditions: 12.5 µM
Procedure: as §1

HSV-1 [4] = test: Inhibition of HSV infectivity on Vero cell monolayers (co-exposure, virus pre-exposure, cell pre-exposure, post-exposure); assay type: cell-based
Procedure: Vero cells were grown in Dulbecco's modified Eagle's medium (DMEM) supplemented with 10% fetal calf serum. HSV-1 carrying a lacZ gene driven by the cytomegalovirus (CMV) IE-1 promoter to express beta-galactosidase was propagated as described elsewhere (Galdiero S, Falanga A, Vitiello M, D'Isanto M, Cantisani M, Kampanaraki A, Benedetti E, Browne H, Galdiero M. Peptides. 2008 Sep;29(9):1461-71). All experiments were conducted in parallel with no-peptide controls. […] Non-penetrated viruses were inactivated by citrate buffer at pH 3.0. Monolayers were fixed, stained with 5-bromo-4-chloro-3-indolyl-beta-D-galactopyranoside (X-gal) and plaque numbers were scored. Experiments were performed in triplicate and the percentage of inhibition was calculated with respect to no-peptide control experiments; ii) For "virus pre-exposure" experiments, […] monolayers; iii) For "cell pre-exposure" experiments, Vero cells were incubated with 20 µM of peptides for 30 min at 4°C and infected with serial dilutions of HSV-1 for 45 min at 37°C; and iv) For "post-exposure" experiments, Vero cell monolayers were incubated with virus for 45 minutes at 37°C and afterwards the peptide was added to the inoculum followed by an additional incubation period of 30 minutes at 37°C.
The antiviral activity was evaluated in co-exposure experiments (with cell, virus, and peptide at zero time), virus pre-exposure experiments (virus plus peptide before cell infection), cell pre-exposure experiments (cell plus peptide before virus infection) and post-treatment (cell plus virus before peptide addition) in order to evaluate in which phase, if any, the peptides could inhibit virus infectivity. […] Both in the co-exposure and virus pre-treatment experiments, the oxidized SEQ. […]

HSV-1 [5] = conditions: reported elsewhere; cited from earlier work
[6] = test system: P. aeruginosa, E. coli and E. faecalis; assay type: cell-based
Procedure: as §1

GIINTLQKYYCRVRGGRCAVLSCLPKEEQIGKCSTRGRKCCRRKK (disulfide 11-40, 18-33, 23-41 (inferred)) [hBD3]
antibacterial effect [1]: strong antibacterial effect | antibacterial effect [2]: strong antibacterial effect | antibacterial effect [3]: strong antibacterial effect | Peptide inhibition (HSV-1 [4]; Cell Pre-treatment at 4°C, 1 uM): 53.5 | Peptide inhibition (HSV-1 [4]; Cell Pre-treatment at 4°C, 5 uM): 41 | Peptide inhibition (HSV-1 [4]; Cell Pre-treatment at 4°C, 10 uM): 27 | Peptide inhibition (HSV-1 [4]; Cell Pre-treatment at 4°C, 20 uM): 22 | Peptide inhibition (HSV-1 [4]; Cell Pre-treatment at 4°C, 50 uM): 18 | Peptide inhibition (HSV-1 [4]; Cell Pre-treatment at 4°C, 150 uM): 1 | Peptide inhibition (HSV-1 [4]; Cell Pre-treatment at 4°C, 1000 uM): 5 | Peptide inhibition (HSV-1 [4]; Co-treatment at 37°C, 1 uM): 79 | Peptide inhibition (HSV-1 [4]; Co-treatment at 37°C, 5 uM): 60 | Peptide inhibition (HSV-1 [4]; Co-treatment at 37°C, 10 uM): 43 | Peptide inhibition (HSV-1 [4]; Co-treatment at 37°C, 20 uM): 32 | Peptide inhibition (HSV-1 [4]; Co-treatment at 37°C, 50 uM): 17.5 | Peptide inhibition (HSV-1 [4]; Co-treatment at 37°C, 150 uM): 6.5 | Peptide inhibition (HSV-1 [4]; Co-treatment at 37°C, 1000 uM): 9 | Peptide inhibition (HSV-1 [4]; Virus Pre-treatment at 37°C, 1 uM): 64 | Peptide inhibition (HSV-1 [4]; Virus Pre-treatment at 37°C, 5 uM): 52 | Peptide inhibition (HSV-1 [4]; Virus Pre-treatment at 37°C, 10 uM): 33 | Peptide inhibition (HSV-1 [4]; Virus Pre-treatment at 37°C, 20 uM): 31 | Peptide inhibition (HSV-1 [4]; Virus Pre-treatment at 37°C, 50 uM): 20 | Peptide inhibition (HSV-1 [4]; Virus Pre-treatment at 37°C, 150 uM): 8.5 | Peptide inhibition (HSV-1 [4]; Virus Pre-treatment at 37°C, 1000 uM): 10 | IC50 (HSV-1 [4]; antiviral activity against HSV-1 on Vero cells): 10 µM | antiviral activity of oxidized versus reduced form (HSV-1 [5]): the same antiviral activity

CC[C@H](C)[C@@H]1NC(=O)[C@H](CCCCN)NC(=O)[C@H]([C@@H](C)O)NC(=O)[C@H](Cc2ccccc2)NC(=O)[C@H]([C@@H](C)CC)NC(=O)[C@@H]2CCCN2C(=O)[C@@H](N)CSSC[C@@H](C(=O)NCC(=O)NCC(=O)N[C@@H](CCCNC(=N)N)C(=O)N[C@@H](CCCNC(=N)N)C(=O)N[C@@H](CCCCN)C(=O)N[C@@H](CCCCN)C(N)=O)NC(=O)[C@H]([C@@H](C)O)NC(=O)CNC(=O)[C@H](CCC(N)=O)NC1=O [SEQ ID No. 25] (H-CPIFTKIQGTCGGRRKK-NH2; disulfide 1-11)
MIC [6]: 12.5 to 25.0 µM

hBD1: human β-defensin 1, wild-type reference peptide (DHYNCVSSGGQCLYSACPIFTKIQGTCYRGKAKCCK; ends and bridges not checked; cysteine pairing not given here; UniProt P60022 33-68, looked up)
antibacterial effect [1]: strong antibacterial effect | antibacterial effect [2]: strong antibacterial effect | antibacterial effect [3]: strong antibacterial effect
